Strand notation (5' to 3'): a small letter for the sugar, then the base; units joined by * are phosphorothioate-linked, units joined directly phosphodiester-linked; [ ] holds rarer units or linkages, { } end groups; capitals alone tell only the bases. k = constrained ethyl (cEt); [5mC] = 5-methylcytosine; d = 2'-deoxy (DNA)
What was measured:
[1] = Tolerability in Balb/c mice, plasma chemistry markers (Example 12); type: in vivo; conditions: 50 mg/kg subcutaneously twice a week for four weeks
Description: Balb/c mice were treated with modified oligonucleotides selected from studies described above and evaluated for changes in the levels of various plasma chemistry markers.
(§1) Groups of male Balb/c mice at 6-7 weeks of age (obtained from Taconic) were injected subcutaneously twice a week for four weeks (for a total of 8 treatments) with 50 mg/kg of modified oligonucleotides. One group of male Balb/c mice was injected with PBS. Mice were euthanized on day 26 post start of treatment (24 hours following the final administration).

[2] = Tolerability in Balb/c mice, body and organ weights (Example 12); type: in vivo; conditions: male Balb/c mice, 50 mg/kg s.c. twice a week for four weeks (8 treatments), end of study (day 26)
Description: as §1
Body weights of Balb/c mice were measured at the end of the study, and the average body weight for each group is presented in the table below. Modified oligonucleotides that caused any changes in organ weights outside the expected range for modified oligonucleotides were excluded from further studies.

[3] = system: Yap1 mRNA; assay: Dose-dependent inhibition of human Yap1 in A-431 cells (Example 7, 10,000 cells per well, RTS36584); type: cell-based; conditions: free uptake; for Yap1 mRNA, % UTC: A-431 cells 10,000 cells per well, 48 hours
How it was run: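 Yap1 mRNA was expressed as percent of untreated control after normalization to total RNA (RIBOGREEN), and IC50 was derived by log/linear linear regression. The read-out used primer-probe set RTS36584 roughly 48 hours after free-uptake dosing of oligonucleotides into A-431 cells (10,000 cells/well).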

[4] = system: Yap1 mRNA; assay: Antisense inhibition of human Yap1 in A-431 cells by cEt gapmers, single dose (Example 1, RTS4814); type: cell-based
How it was run: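 Free uptake of 2,000 nM 3-10-3 cEt gapmer (16-mer, full phosphorothioate, 5-methylcytosines) in A-431 cells for ~48 h. Yap1 mRNA quantified by qRT-PCR with set RTS4814, normalized to total RNA (RiboGreen), and expressed as % of untreated control; asterisked values target the amplicon region.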

[5] = system: Yap1 mRNA; assay: Antisense inhibition of human Yap1 in A-431 cells by cEt gapmers, single dose (Example 3, RTS36584); type: cell-based; conditions: A-431 cells, 5,000 cells per well
How it was run: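 A-431 cells were treated by free uptake with 2,000 nM modified oligonucleotide (3-10-3 cEt gapmers, full phosphorothioate, 5-methylcytosines) for about 48 hours. Yap1 mRNA was quantified by real-time RT-PCR, normalized to RiboGreen total RNA, and expressed as % of untreated control; asterisked values mark oligonucleotides targeting the amplicon region.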

[6] = system: Yap1 mRNA; assay: Antisense inhibition of human Yap1 in SNU-449 cells by modified oligonucleotides, single dose (Example 5, RTS36584); type: cell-based
How it was run: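 SNU-449 cells (10,000/well) took up 2,000 nM oligonucleotide by free uptake for about 48 h. Yap1 mRNA was measured by qRT-PCR with primer probe set RTS36584 and normalised to RIBOGREEN total RNA. Values are % of untreated control; asterisked oligos target the amplicon region.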

[7] = Table 2, A-431 cells, free uptake, 2,000 nM, approximately 48 hours, RTS4814, Yap1 mRNA relative to untreated control cells
[8] = Table 8, free uptake, 2,000 nM, approximately 48 hours, RTS36584, normalized to RIBOGREEN, Yap1 mRNA relative to untreated control cells
[9] = Table 1, A-431 cells, free uptake, 2,000 nM, approximately 48 hours, RTS4814, Yap1 mRNA relative to untreated control cells
[10] = A-431 cells, 5,000 cells per well, free uptake, 2,000 nM modified oligonucleotide, approx. 48 hours, RTS4814, normalized to RIBOGREEN, Table 3

958603 (kT*kG*kG*dT*dA*dT*dG*dA*dA*dT*dT*d[5mC]*dT*kG*kA*kA; antisense) [compound 958603]
ALT [1]: 1103 U/L | AST [1]: 927 U/L | BUN [1]: 27 mg/dL | TBIL [1]: 0.35 mg/dL | Kidney weight [2]: 0.36 g | Liver weight [2]: 1.80 g | Spleen weight [2]: 0.20 g | body weight [2]: 21 g | Yap1 mRNA, % UTC ([3]; Table 59, 15.6 nM): 70 % UTC | Yap1 mRNA, % UTC ([3]; Table 59, 62.5 nM): 27 % UTC | Yap1 mRNA, % UTC ([3]; Table 59, 4000.00 nM): 4 % UTC | IC50 ([3]; Table 59, A-431 cells 10,000 cells per well): 30 nM

715491 (antisense kA*kA*k[5mC]*d[5mC]*dA*dA*d[5mC]*dT*dA*dT*dT*dA*d[5mC]*kT*kT*k[5mC]) [Compound 715491]
YAP1 (% UTC) [4, 7]: 71 % UTC | YAP1 (% UTC) [5, 8]: 8 % UTC

715428 (kT*k[5mC]*k[5mC]*d[5mC]*dA*dT*d[5mC]*d[5mC]*dA*dT*d[5mC]*dA*dG*kG*kA*kA; antisense) [Compound 715428]
YAP1 (% UTC) [4, 7]: 106 % UTC

715487 (antisense kA*kT*kT*dA*d[5mC]*dT*dT*d[5mC]*dA*dT*dA*dG*d[5mC]*kT*kT*kA) [Compound 715487]
YAP1 (% UTC) [4, 9]: 22 % UTC | YAP1 (% UTC) ([6]; Table 39, SNU-449 cells, 10,000 cells per well, free uptake, 2,000 nM oligonucleotide, approx. 48 hours, RTS36584, normalized to RIBOGREEN, Yap1 mRNA relative to untreated control): 12 % UTC | YAP1 (% UTC) ([6]; Table 40 (separate experiment), SNU-449 cells, 10,000 cells per well, free uptake, 2,000 nM oligonucleotide, approx. 48 hours, RTS36584, normalized to RIBOGREEN, Yap1 mRNA relative to untreated control): 28 % UTC | YAP1 (% UTC) ([6]; Table 41, SNU-449 cells, 10,000 cells per well, free uptake, 2,000 nM modified oligonucleotide, approximately 48 hours, RTS36584, normalized to RIBOGREEN, Yap1 mRNA relative to untreated control cells): 28 % UTC | YAP1 (% UTC) ([6]; Table 42 (separate experiment), SNU-449 cells, 10,000 cells per well, free uptake, 2,000 nM modified oligonucleotide, approximately 48 hours, RTS36584, normalized to RIBOGREEN, Yap1 mRNA relative to untreated control cells): 29 % UTC | YAP1 (% UTC) ([6]; Table 43 experiment, SNU-449 cells, 10,000 cells per well, free uptake, 2,000 nM, approximately 48 hours, RTS36584, Yap1 mRNA normalized to RIBOGREEN, relative to untreated control cells): 25 % UTC | YAP1 (% UTC) ([6]; Table 44 experiment, SNU-449 cells, 10,000 cells per well, free uptake, 2,000 nM, approximately 48 hours, RTS36584, Yap1 mRNA normalized to RIBOGREEN, relative to untreated control cells): 18 % UTC | YAP1 (% UTC) ([6]; Table 45, Yap1 mRNA as percent of untreated control, SNU-449 cells, single dose): 28 % UTC | YAP1 (% UT) ([6]; Table 46, Yap1 mRNA as percent of untreated control, SNU-449 cells, single dose): 25 % UT | YAP1 (% UT) ([6]; Table 48, Yap1 mRNA level relative to untreated control, modified oligonucleotides targeting SEQ ID NO.: 1 and 2): 34 % UT | YAP1 (% UT) ([6]; Table 49, Yap1 mRNA level relative to untreated control, modified oligonucleotides targeting SEQ ID NO.: 1 and 2): 30 % UT | YAP1 (% UT) ([6]; Table 50, Yap1 mRNA remaining as percent of untreated control (UT), SNU-449 cells, single dose): 31 % UT | YAP1 (% UT) ([6]; Table 51, Yap1 mRNA remaining as percent of untreated control (UT), SNU-449 cells, single dose): 24 % UT | YAP1 (% UT) ([6]; Table 52, Yap1 mRNA, modified oligonucleotides targeting SEQ ID NO: 1 and 2): 29 % UT | YAP1 (% UT) ([6]; Yap1 mRNA, percent of untreated control, modified oligonucleotides targeting SEQ ID NO: 1 and 2, Table 47): 39 % UT

715517 (kG*kG*k[5mC]*d[5mC]*dT*dA*dT*dG*dA*dG*dT*d[5mC]*dA*kA*k[5mC]*k[5mC]; antisense) [Compound 715517]
YAP1 (% UTC) [4, 9]: 109 % UTC

715501 (antisense kA*kA*kA*dA*dG*d[5mC]*d[5mC]*dT*dT*dA*dG*dA*dG*kT*k[5mC]*kA) [Compound 715501]
YAP1 (% UTC) [4, 10]: 28 % UTC

715417 (kG*kA*kG*d[5mC]*dT*d[5mC]*dG*dA*dA*d[5mC]*dA*dT*dG*k[5mC]*kT*kG; antisense) [Compound 715417]
YAP1 (% UTC) [4, 10]: 104 % UTC

715476 (antisense kA*kA*kA*dG*d[5mC]*dT*dT*dT*d[5mC]*dT*dT*dT*dA*kT*k[5mC]*kT) [Compound 715476]
YAP1 (% UTC) [4, 7]: 84 % UTC

715604 (antisense kT*kA*kG*d[5mC]*dA*d[5mC]*dA*dG*dA*dA*dT*dT*d[5mC]*k[5mC]*k[5mC]*kA) [Compound 715604]
YAP1 (% UTC) [4, 9]: 107 % UTC

715572 (kT*k[5mC]*kA*dG*dA*dG*dA*dA*dG*dA*dA*dA*dG*kG*kT*kA; antisense) [Compound 715572]
YAP1 (% UTC) [4, 7]: 97 % UTC

715544 (k[5mC]*kA*kA*d[5mC]*dT*dA*d[5mC]*dT*dT*dG*dA*dA*dG*kA*kA*k[5mC]; antisense) [Compound 715544]
YAP1 (% UTC) [4, 9]: 128 % UTC

715496 (antisense k[5mC]*k[5mC]*k[5mC]*dT*dT*dG*dA*dA*dA*dA*dT*dA*dA*kG*kG*kG) [Compound 715496]
YAP1 (% UTC) [4, 9]: 124 % UTC

715423 (k[5mC]*k[5mC]*kA*dT*dG*dT*dT*dG*dT*dT*dG*dT*d[5mC]*kT*kG*kA; antisense) [Compound 715423]
YAP1 (% UTC) [4, 10]: 30 % UTC

715459 (antisense k[5mC]*kT*k[5mC]*dG*dA*dG*dA*dG*dT*dG*dA*dT*dA*kG*kG*kT) [Compound 715459]
YAP1 (% UTC) [4, 10]: 93 % UTC

715481 (antisense kT*kT*kG*dG*dA*dA*dA*d[5mC]*d[5mC]*dA*dT*dT*dA*kT*kT*kA) [Compound 715481]
YAP1 (% UTC) [4, 9]: 66 % UTC

715436 (antisense kT*kG*kG*d[5mC]*dA*dA*dA*dA*d[5mC]*dG*dA*dG*dG*kG*kT*k[5mC]) [Compound 715436]
YAP1 (% UTC) [4, 9]: 126 % UTC

715541 (k[5mC]*kT*kT*dG*dA*dA*dG*dA*dA*d[5mC]*dT*dA*dT*kT*kT*k[5mC]; antisense) [Compound 715541]
YAP1 (% UTC) [4, 9]: 105 % UTC

715546 (kT*kG*kA*d[5mC]*d[5mC]*dA*dA*d[5mC]*dT*dA*d[5mC]*dT*dT*kG*kA*kA; antisense) [Compound 715546]
YAP1 (% UTC) [4, 10]: 59 % UTC

715506 (antisense kA*kA*kA*dT*dT*dG*dG*dT*dT*dT*dA*dT*dT*kG*kT*kA) [Compound 715506]
YAP1 (% UTC) [4, 7]: 112 % UTC

715452 (antisense kG*kT*k[5mC]*dA*dT*dT*dG*dT*dT*d[5mC]*dT*d[5mC]*dA*kA*kT*kT) [Compound 715452]
YAP1 (% UTC) [4, 7]: 71 % UTC

715483 (antisense k[5mC]*kT*k[5mC]*dT*dT*dT*dG*dG*dA*dA*dA*d[5mC]*d[5mC]*kA*kT*kT) [Compound 715483]
YAP1 (% UTC) [4, 10]: 15 % UTC | YAP1 (% UTC) [5, 8]: 2 % UTC | YAP1 (% UTC) ([5]; Table 9, free uptake, 2,000 nM, approximately 48 hours, RTS36584, normalized to RIBOGREEN, Yap1 mRNA relative to untreated control cells): 1 % UTC | YAP1 (% UTC) ([5]; Table 10, free uptake, 2,000 nM oligonucleotide, approx. 48 hours, primer probe set RTS36584, Yap1 mRNA normalized to RIBOGREEN, percent of untreated control): 2 % UTC | YAP1 (% UTC) ([5]; Table 11, free uptake, 2,000 nM oligonucleotide, approx. 48 hours, primer probe set RTS36584, Yap1 mRNA normalized to RIBOGREEN, percent of untreated control): 1 % UTC | YAP1 (% UTC) ([5]; Table 12, free uptake, 2,000 nM modified oligonucleotide, approx. 48 hours, RTS36584, normalized to RIBOGREEN, Yap1 mRNA relative to untreated control cells): 1 % UTC | YAP1 (% UTC) ([5]; Table 13, free uptake, 2,000 nM modified oligonucleotide, approx. 48 hours, RTS36584, normalized to RIBOGREEN, Yap1 mRNA relative to untreated control cells): 1 % UTC

715475 (antisense kA*kG*k[5mC]*dT*dT*dT*d[5mC]*dT*dT*dT*dA*dT*d[5mC]*kT*kA*kG) [Compound 715475]
YAP1 (% UTC) [4, 9]: 103 % UTC

715539 (kA*kG*kA*dT*d[5mC]*dT*d[5mC]*dA*d[5mC]*dT*dG*dA*d[5mC]*k[5mC]*kT*kA; antisense) [Compound 715539]
YAP1 (% UTC) [4, 7]: 102 % UTC

715612 (antisense kT*kA*k[5mC]*dT*dT*dT*dA*dA*dG*d[5mC]*d[5mC]*dA*d[5mC]*kA*kT*kG) [Compound 715612]
YAP1 (% UTC) [4, 10]: 77 % UTC

Source: US11214803B2, “Modulators of YAP1 expression” (Ionis Pharmaceuticals, Inc., priority 2019, dated 2022)
